ChEMBL document CHEMBL4602695, “Discovery and SARs of 5-Chloro-N4-phenyl-N2-(pyridin-2-yl)pyrimidine-2,4-diamine Derivatives as Oral Available and Dual CDK 6 and 9 Inhibitors with Potent Antitumor Activity” (J Med Chem, 2020)

Legend:
CDK2/Cyclin A2 = CDK2/Cyclin A2 (Homo sapiens, UniProt P24941); design: species or system Sf9
MCF7 = assay: Antiproliferative activity against human MCF7 cells assessed as inhibition of cell proliferation measured after 48 hrs by CCK8 assay; format: functional, cell-based; settings: MCF7, 48 h
MDA-MB-231 = assay: Antiproliferative activity against human MDA-MB-231 cells assessed as inhibition of cell proliferation measured after 48 hrs by CCK8 assay; format: functional, cell-based; settings: MDA-MB-231, 48 h
CDK9/Cyclin K = CDK9/Cyclin K (Homo sapiens, UniProt P50750); assay: biochemical
Jurkat = assay: Antiproliferative activity against human Jurkat cells assessed as inhibition of cell proliferation measured after 48 hrs by CCK8 assay; format: functional, cell-based
CDK6/cyclin D3 = CDK6/cyclin D3 (Homo sapiens, UniProt Q00534); design: species or system Sf9
[1] = Cytotoxicity against human L02 cells assessed as inhibition of cell proliferation measured after 48 hrs by CCK8 assay; format: cell-based

Chain of CDK6/cyclin D3 (P30281 whole entry): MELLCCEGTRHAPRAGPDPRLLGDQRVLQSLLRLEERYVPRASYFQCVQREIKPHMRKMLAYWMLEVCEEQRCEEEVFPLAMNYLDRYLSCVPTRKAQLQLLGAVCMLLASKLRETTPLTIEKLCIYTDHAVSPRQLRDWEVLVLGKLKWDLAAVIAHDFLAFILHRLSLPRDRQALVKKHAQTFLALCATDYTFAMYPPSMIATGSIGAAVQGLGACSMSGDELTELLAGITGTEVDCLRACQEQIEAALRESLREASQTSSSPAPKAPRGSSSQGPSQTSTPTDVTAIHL
Chain of CDK6/cyclin D3 (Q00534 whole entry): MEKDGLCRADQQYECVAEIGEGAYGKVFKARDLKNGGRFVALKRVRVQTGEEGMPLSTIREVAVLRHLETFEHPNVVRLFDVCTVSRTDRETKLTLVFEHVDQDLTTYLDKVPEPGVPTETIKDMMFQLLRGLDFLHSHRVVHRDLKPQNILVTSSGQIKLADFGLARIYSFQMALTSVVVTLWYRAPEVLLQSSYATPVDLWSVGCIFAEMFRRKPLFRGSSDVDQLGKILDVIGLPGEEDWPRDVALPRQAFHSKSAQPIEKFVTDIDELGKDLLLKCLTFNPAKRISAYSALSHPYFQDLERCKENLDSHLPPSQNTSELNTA
Chain of CDK9/Cyclin K (P50750 whole entry): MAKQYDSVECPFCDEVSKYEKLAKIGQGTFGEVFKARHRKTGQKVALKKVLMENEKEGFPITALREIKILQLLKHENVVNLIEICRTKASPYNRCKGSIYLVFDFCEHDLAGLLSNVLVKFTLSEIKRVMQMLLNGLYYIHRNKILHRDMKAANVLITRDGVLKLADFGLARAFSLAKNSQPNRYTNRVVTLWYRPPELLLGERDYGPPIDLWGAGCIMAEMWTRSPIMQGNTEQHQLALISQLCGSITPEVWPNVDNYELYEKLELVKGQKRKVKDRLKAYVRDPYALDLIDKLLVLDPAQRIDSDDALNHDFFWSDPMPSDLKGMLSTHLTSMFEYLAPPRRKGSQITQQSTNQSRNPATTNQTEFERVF
Chain of CDK9/Cyclin K (O75909 whole entry, further chain): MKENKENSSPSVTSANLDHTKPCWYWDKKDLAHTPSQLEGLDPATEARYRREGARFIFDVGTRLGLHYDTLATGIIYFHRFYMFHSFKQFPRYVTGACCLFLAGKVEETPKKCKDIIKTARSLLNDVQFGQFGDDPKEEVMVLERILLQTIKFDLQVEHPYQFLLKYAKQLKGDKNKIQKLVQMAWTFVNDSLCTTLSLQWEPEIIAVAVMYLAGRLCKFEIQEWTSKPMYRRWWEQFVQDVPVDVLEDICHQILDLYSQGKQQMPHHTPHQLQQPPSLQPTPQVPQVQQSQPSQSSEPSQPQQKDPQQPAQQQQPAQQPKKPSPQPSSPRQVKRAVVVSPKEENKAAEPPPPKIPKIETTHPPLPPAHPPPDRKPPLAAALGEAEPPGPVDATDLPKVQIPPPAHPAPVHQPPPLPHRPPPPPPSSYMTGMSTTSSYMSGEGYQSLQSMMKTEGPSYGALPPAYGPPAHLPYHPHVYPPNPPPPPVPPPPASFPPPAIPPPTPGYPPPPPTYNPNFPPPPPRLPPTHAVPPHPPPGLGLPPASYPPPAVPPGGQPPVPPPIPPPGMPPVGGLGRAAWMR

SMILES | IC50 (CDK2/Cyclin A2) [µM] | GI50 (MCF7) [µM] | GI50 (MDA-MB-231) [µM] | IC50 (CDK9/Cyclin K) [µM] | GI50 (Jurkat) [µM] | IC50 (CDK6/cyclin D3) [µM] | GI50 at 48 h [1] [µM]
Cc1ccc(Nc2nc(Nc3ccc(N4CCN(C)CC4)cn3)ncc2Cl)cc1 | > 10 | 11.4 | 4.03 | 1.45 | 30.9 | 0.088 | 13.9
CC(C)c1ccccc1Nc1nc(Nc2ccc(N3CCN(C)CC3)cn2)ncc1Cl | > 10 | 4.36 | 4.09 | 2.65 | 5.14 | 0.033 | 
Cc1ccccc1Nc1nc(Nc2cc(Cl)ccn2)ncc1Cl | > 10 | > 100 | 52.4 | > 10 | 39.6 | > 10 | 41.5
Cc1ccccc1Nc1nc(Nc2ccc(N3CCOCC3)cn2)ncc1Cl | > 10 | 6.63 | 5.98 | 0.051 | 14.1 | 0.046 | 1.99
COc1ccc(CCNc2nc(Nc3ccc(N4CCN(C)CC4)cn3)ncc2Cl)cc1 | > 10 | 38.4 | > 100 | > 10 | > 100 | > 10 | > 100
COc1cc(Nc2ncc(Cl)c(Nc3ccccc3C)n2)ccn1 | 0.074 | > 100 | 42.6 | 0.908 | 9.38 | > 10 | 18.4
Cc1ccccc1Nc1nc(Nc2ccc(N3CCOCC3)cc2)ncc1Cl | 2.68 | > 100 | 11.3 | 1.12 | 8.36 | 1.69 | 5.37
Cc1ccccc1Nc1nc(NC2CC2)ncc1Cl | > 10 | > 100 | > 100 | > 10 | > 100 | > 10 | > 100
CC(C)c1cccc(Nc2nc(Nc3ccc(N4CCN(C)CC4)cn3)ncc2Cl)c1 | > 10 | 8.64 | 5.59 | 0.654 | 12.2 | 0.452 | 12.5
CN1CCN(c2ccc(Nc3ncc(Cl)c(NCCc4ccc(F)cc4)n3)nc2)CC1 | > 10 | > 100 | 28.5 | > 10 | > 100 | > 10 | > 100
Cc1ccccc1Nc1nc(Nc2ccc(N3CCN(C(=O)OC(C)(C)C)CC3)cc2)ncc1Cl | 0.192 | 2.25 | 3.26 | 0.176 | 5.12 | 0.116 | 1.75
COc1ccccc1CNc1nc(Nc2ccc(N3CCN(C)CC3)cn2)ncc1Cl | > 10 | > 100 | 29.3 | > 10 | 10.8 | > 10 | 25.5
Cc1ccccc1Nc1nc(Nc2ccc(N3CCCN(C)CC3)cc2)ncc1Cl | 1.59 | 4.29 | 6.39 | 0.88 | 11.3 | 0.536 | 1.24
Cc1ccccc1Nc1nc(NCc2ccccc2)ncc1Cl | > 10 | > 100 | > 100 | > 10 | > 100 | > 10 | > 100
COc1ccc(Nc2nc(Nc3ccc(N4CCN(C)CC4)cn3)ncc2Cl)cc1 | 6.11 | 8.45 | 8.02 | 1.38 | 11.2 | 0.606 | 3.15
CN1CCN(c2ccc(Nc3ncc(Cl)c(Nc4ccc(C(C)(C)C)cc4)n3)nc2)CC1 | > 10 | 12.6 | 16.2 | 6.82 |  | 0.735 | 6.07
Cc1cc(C)c(Nc2nc(Nc3ccc(N4CCN(C)CC4)cn3)ncc2Cl)c(C)c1 | > 10 | 9.47 | 21 | > 10 | 7.6 | 8.87 | 20.5
Cc1ccccc1Nc1nc(Nc2ccc(N3CCCCC3)cc2)ncc1Cl | 3.69 | > 100 | 19.9 | > 10 | > 100 | > 10 | 5.69
Cc1ccccc1Nc1nc(NCc2ccco2)ncc1Cl | > 10 | > 100 | > 100 | > 10 | > 100 | > 10 | > 100
CCN1CCN(c2ccc(Nc3ncc(Cl)c(Nc4ccccc4C)n3)nc2)CC1 | 9.18 | > 100 | > 100 | > 10 | > 100 | > 10 | > 100
Cc1ccc(CNc2nc(Nc3ccc(N4CCN(C)CC4)cn3)ncc2Cl)cc1 | > 10 | 38.1 | 18.6 | > 10 | 12.7 | 1.04 | > 100
CN1CCN(c2ccc(Nc3ncc(Cl)c(NCCc4ccccc4)n3)nc2)CC1 | > 10 | 11.8 | > 100 | > 10 | > 100 | > 10 | 14.9
COc1cccc(Nc2nc(Nc3ccc(N4CCN(C)CC4)cn3)ncc2Cl)c1 | 0.701 | 7.54 | 8.51 | 6.2 | 15.8 | 0.103 | 3.47
Cc1ccccc1Nc1nc(NC2CCCCC2)ncc1Cl | > 10 | > 100 | > 100 | > 10 | > 100 | > 10 | > 100
CN1CCN(c2ccc(Nc3ncc(Cl)c(NCc4ccc(C(F)(F)F)cc4)n3)nc2)CC1 | > 10 | 28.4 | 19.1 | > 10 | 7.96 | 8.93 | 26.2
Cc1ccccc1Nc1nc(Nc2ccccc2)ncc1Cl | > 10 | > 100 | > 100 | > 10 | > 100 | > 10 | > 100
Cc1ccccc1Nc1nc(NCCc2ccccn2)ncc1Cl | > 10 | > 100 | > 100 | > 10 | > 100 | > 10 | > 100
CN1CCN(c2ccc(Nc3ncc(Cl)c(NCc4ccccc4)n3)nc2)CC1 | > 10 | 17.3 | 24.8 | > 10 | > 100 | > 10 | 20.3
Cc1ccccc1Nc1nc(Nc2ccccn2)ncc1Cl | 0.643 | 31.4 | 11.2 | 8.11 to 8.12 | 20.1 | 2.76 | 6.15
Cc1ccccc1Nc1nc(NCCc2ccccc2)ncc1Cl | > 10 | > 100 | > 100 | > 10 | > 100 | > 10 | > 100
